Test results taken from patent publication US12459930B2, “Compounds for the inhibition of unregulated cell growth” (GODAVARI BIOREFINERIES LIMITED, priority 2018, dated 2025).
“And” between values parts separate entries of the source, which are not always exact repeats. Equal values may be shown once. Read-outs that look alike come from different tables or passages of the source.

Key:
[1] = system: PC3 prostate cancer cell line; test: In vitro antiproliferative assay (MTT assay), PC3; assay type: cell-based; conditions: 48 hrs drug incubation, read-out: IC50 in micromolar, PC3 (MTT assay)
Experimental: (§1) MTT assay is a simple and sensitive assay where, metabolic reducing activity of the cells is measured. The increase of this activity in time is taken as a parameter of cell growth. If treatment with a drug impairs this increase, the action is a consequence of growth inhibition, cell killing or both. […] All cell lines were cultured in a 37° C. incubator with a 5% CO2 environment. Compounds were dissolved in DMSO with a concentration of 0.1M (stock solution). Cells were seeded into 96-well plates at suitable plating efficiency.
(§2) Following plating efficiencies were standardized for MTT assay:
(§3) In the MTT procedure, the cells were plated in 96 well plates as per predetermined plating efficiency (Table1). The plates were then incubated for 24 hrs in 5% CO2 atmosphere at 37° C. Appropriate concentrations of the drugs were then added to the plate and further incubation was carried out for 48 hrs (in 5% CO2 atmosphere at 37° C.). The assay plate was then centrifuged twice at 3000 rpm for 3 mins and supernatant was then discarded. 100 ul of MTT solution (0.5 mg/ml) was then added to each well of the plate and it was further incubated for 4 hrs (in 5% CO2 atmosphere at 37° C.) Following 4 hr incubation, the plate was then centrifuged twice, and supernatant was aspirated off very carefully. 200 ul of DMSO was then added to each well to solubilize. MTT crystals and mixed well by shaking the plate. XY graph of log percent viability was then plotted against log drug concentration.

[2] = system: MDAMB231 spheres (cancer stem cells); test: In vitro sphere-forming assay (cancer stem cells), MDAMB231 in Mammosphere media; conditions: for 3D sphere count of MDAMB231 in Mammosphere media: 2000 cells/well, n = 6 ± S.D; for viability at 0.0025 µM / viability at 0.025 µM / viability at 0.25 µM / viability at 2.5 µM / viability at 25 µM: Homo sapiens, MDA-MB-231, read-out: % Viability of spheres (MDAMB231)
Experimental: (§7) In Vitro Sphere-forming Assay: Sphere assay measures the ability of cancer stem cells (CSCs) to form spheres in specially designed serum-free medium.
Mammosphere Media Preparation (For 100 mL): 1 g methyl cellulose autoclaved with magnetic stirrer, 100 ml plain media (MEBM) was added and dissolved under magnetic stirring. After complete dissolution FGF—80 μL, EGF—40 μL, Penstrep—1 mL, Heparin—400 μL was added.
(§8) Procedure—The cells were trypsinised and made into single-cell suspension by passing through cell strainers (100 μl and 40 μl, respectively), The cells were diluted at a concentration of 2000 cells/100 μL and suspended in either Mammosphere (for breast cell lines) or Prostosphere (for prostate cell lines). 100 μL of this suspension was added into each well of 96-well suspension plates and incubated at 37 C, 50 CO2 for 24 hrs. Appropriate concentrations of the drugs (2 L) were added into respective wells with 100 μL of stem cell culture medium. Plates were incubated at 37° C., 50% CO2 for 72 hrs. After incubation, 2.5 μL of the respective drug concentration and 50 μL of stem cell culture medium were added into each well and the plates were further incubated at 37° C., 500 CO2 for 72 hrs. 3 μL of the respective drug concentration was added with 50 μL of stem cell culture medium again after incubation and plates were reincubated for 72 hrs at 37° C., 500 CO2. Number of primary spheres formed for each concentration were counted. The spheres were converted to 0 viability of spheres compared to untreated (Growth Control with DMSO, GCD).

[3] = system: DU145 prostate cancer cell line; test: In vitro antiproliferative assay (MTT assay), DU145; assay type: cell-based; conditions: 48 hrs drug incubation, read-out: IC50 in micromolar, DU145 (MTT assay)
Experimental: as §1, §2, §3

[4] = system: MDAMB231 breast cancer cell line; test: Soft agar colony-formation assay, MDAMB231; assay type: cell-based; conditions: 1 week, Alamar Blue, read-out: IC50 in micromolar, MDAMB231 (Soft Agar Assay)
Experimental: (§4) The Soft Agar Colony-formation Assay is an anchorage-independent growth assay in soft agar, which is one of the most stringent assays for detecting malignant transformation of cells. For this assay, malignant cells are cultured with appropriate controls in soft agar medium for 1-2 weeks. Following this incubation period, formed colonies can either be analyzed morphologically using cell stain and quantifying the number of colonies formed.
(§5) Briefly, for Soft Agar Assay a mixture of 50 ul of 2× medium (taken appropriately as per cell line) and 50 ul of 1.2% Bacto Agar were plated on to each well of 96 well micro titer assay plate. 10 ul of cells (of specific plating efficiency pre standardized for respective cell line) were mixed with 20 ul of 2× medium and 30 ul of 0.8% of Bacto Agar and 1.6 ul of drug (of appropriate concentration) in a vial and transferred to the solidified pre layers of the assay plates. The cells were then allowed to grow and form colonies at 37° C. and 5% C02 for 1 week. An intermittent feeding with 50 ul of appropriate 2× medium was performed after 3 days of experimental set up. 16 ul of Alamar Blue (1.5 mg/ml) was then added to all the wells to quantify the developed colonies. The plates were incubated for 24 hrs at 37° C. Absorbance was then measured at 630 nm. XY graph of log Percent viability was then plotted against log drug concentration.
(§6) Following plating efficiencies were standardized for Soft Agar Assay: […]

[5] = system: PC3 prostate cancer cell line; test: Soft agar colony-formation assay, PC3; assay type: cell-based; conditions: 1 week, Alamar Blue, read-out: IC50 in micromolar, PC3 (Soft Agar Assay)
Experimental: as §4, §5, §6

[6] = system: PC3 spheres (cancer stem cells); test: In vitro sphere-forming assay (cancer stem cells), PC3 in Prostosphere media; conditions: for 3D sphere count of PC3 in Prostosphere media: 2000 cells/well, n = 6 ± S.D; for viability at 0.0025 µM: read-out: % Viability of spheres (PC3), 0.0025 uM; for viability at 0.0025 µM / viability at 0.025 µM / viability at 0.25 µM / viability at 2.5 µM / viability at 25 µM: GCD = 100% viability; for viability at 0.025 µM: read-out: % Viability of spheres (PC3), 0.025 uM; for viability at 0.25 µM: read-out: % Viability of spheres (PC3), 0.25 uM; for viability at 2.5 µM: read-out: % Viability of spheres (PC3), 2.5 uM; for viability at 25 µM: read-out: % Viability of spheres (PC3), 25 uM
Source text: as §7
Materials and Reagents:50×B27 Supplement (Life Technologies, Invitrogen, Catlog No.: 17502-044), Fibroblast Growth Factor (FGF) (Sigma-Aldrich, Catlog No.: F029125), Epidermal Growth Factor (EGF) (Sigma-Aldrich, Catlog No.: E9644), Insulin (Sigma, Catlog No.: 19278), Dulbecco's Modified Eagle Medium/F12 (HiMedia Catlog No.: AL139-6), Dulbecco's Phosphate Buffered Saline (HiMedia Catlog No.: TL1006), Trypan Blue (TC193), Prostate Epithelial Media (LONZA, Catlog No.: CC-3166) MEGM (LONZA, Catlog No.: CC-3051), Heparin (Sigma, Catlog No.: H3393), Penstrep (HiMedia, Catlog No.: A002)
Prostosphere Media Preparation (For 100 mL): 1 g methyl cellulose autoclaved with magnetic stirrer, 100 mL plain media (Prostate Epithelial Basal Medium) was added and dissolved, under magnetic stirring. After complete dissolution, Insulin—40 μL, B27—2 mL, EGF—80 μL, Penstrep—1 ml was added.
as §8

[7] = system: MDAMB231 breast cancer cell line; test: In vitro antiproliferative assay (MTT assay), MDAMB231; assay type: cell-based; conditions: 48 hrs drug incubation, read-out: IC50 in micromolar, MDAMB231 (MTT assay)
Experimental: as §1, §2, §3

[8] = Homo sapiens, MDA-MB-231, 168 h

| IC50 ([1]; 48 h) | IC50 ([3]; Homo sapiens, DU-145, 48 h) | IC50 [4, 8] | IC50 ([5]; 168 h) | SMILES | 3D sphere count of MDAMB231 in Mammosphere media ([2]; 0.0025 uM) | 3D sphere count of MDAMB231 in Mammosphere media ([2]; 0.025 uM) | 3D sphere count of MDAMB231 in Mammosphere media ([2]; 0.25 uM) | 3D sphere count of MDAMB231 in Mammosphere media ([2]; 2.5 uM) | 3D sphere count of MDAMB231 in Mammosphere media ([2]; 25 uM) | viability at 0.0025 µM [2] | viability at 0.025 µM [2] | viability at 0.25 µM [2] | viability at 2.5 µM [2] | viability at 25 µM [2] | 3D sphere count of PC3 in Prostosphere media ([6]; 0.0025 uM) | 3D sphere count of PC3 in Prostosphere media ([6]; 0.025 uM) | 3D sphere count of PC3 in Prostosphere media ([6]; 0.25 uM) | 3D sphere count of PC3 in Prostosphere media ([6]; 2.5 uM) | 3D sphere count of PC3 in Prostosphere media ([6]; 25 uM) | viability at 0.0025 µM [6] | also measured |
| --- | --- | --- | --- | --- | --- | --- | --- | --- | --- | --- | --- | --- | --- | --- | --- | --- | --- | --- | --- | --- | --- |
| 0.346 µM | 0.532 µM | 2.8 µM | 0.4 µM | c1ccc2c(-c3ccc4c(c3)OCO4)ccc(OCCCCNC3CCCCC3)c2c1 [Formula XIV, N-(4-(1-(benzo[d][1,3]dioxol-5-yl)naphthalen-4-yloxy)butyl)cyclohexan amine] | 47(±3) | 43(±3) | 21(±7) | 21(±3) | 7(±3) | 57% | 52% | 26% | 26% | 9% | 56(±3) | 44(±5) | 39(±5) | 24(±3) | 13(±3) | 64% | viability at 0.025 µM [6]: 51%; viability at 0.25 µM [6]: 45%; viability at 2.5 µM [6]: 28%; viability at 25 µM [6]: 15%; IC50 ([7]; Homo sapiens, MDA-MB-231, 48 h): 0.308 µM |
| 3.34 µM | 3.87 µM | 3.78 µM | 3.31 µM | c1cc2c(cc1-c1ccc(OCCCCCCN3CCOCC3)c3c1CCCC3)OCO2 [Formula XX, 4-(6-(5-(benzo[d][1,3]dioxol-5-yl)-1,2,3,4-tetrahydronaphthalen-8-yloxy)hexyl) morpholine] | 48(±4) | 37(±4) | 27(±3) | 14(±4) | 0(±0) | 61% | 47% | 34% | 17% | 0% | 48(±5) | 37(±2) | 33(±4) | 15(±3) | 0(±0) | 58% | viability at 0.025 µM [6]: 45%; viability at 0.25 µM [6]: 40%; viability at 2.5 µM [6]: 18%; viability at 25 µM [6]: 0%; IC50 ([7]; Homo sapiens, MDA-MB-231, 48 h): 3.04 µM |
| 3.71 µM | 2.04 µM | 3.41 µM | 5.12 µM | CN1CCN(CCCCOc2ccc(-c3ccc4c(c3)OCO4)c3c2CCCC3)CC1 [Formula XIX, 1-(4-(5-(benzo[d][1,3]dioxol-5-yl)-1,2,3,4-tetrahydronaphthalen-8-yloxy)butyl)-4-methylpiperazine] | 48(±4) | 40(±4) | 34(±3) | 23(±5) | 13(±2) | 61% | 50% | 43% | 29% | 16% | 51(±3) | 40(±3) | 35(±3) | 25(±3) | 13(±2) | 62% | viability at 0.025 µM [6]: 48%; viability at 0.25 µM [6]: 42%; viability at 2.5 µM [6]: 30%; viability at 25 µM [6]: 15%; IC50 ([7]; Homo sapiens, MDA-MB-231, 48 h): 2.14 µM |
| 0.32 µM | 0.348 µM | 4.18 µM | 2.63 µM | c1cc2c(cc1-c1ccc(OCCCCCCNC3CCCCC3)c3c1CCCC3)OCO2 [Formula XVIII, N-(6-(5-(benzo[d][1,3]dioxol-5-yl)-1,2,3,4-tetrahydronaphthalen-8-yloxy)hexyl) cyclohexanamine] | 54(±3) | 49(±4) | 39(±2) | 28(±3) | 19(±1) | 65% | 58% | 45% | 34% | 24% | 50(±4) | 43(±5) | 39(±3) | 27(±4) | 19(±3) | 63% | viability at 0.025 µM [6]: 54%; viability at 0.25 µM [6]: 49%; viability at 2.5 µM [6]: 34%; viability at 25 µM [6]: 24%; IC50 ([7]; Homo sapiens, MDA-MB-231, 48 h): 0.398 µM |
| – | – | – | – | N.N.[Cl][Pt][Cl] [Cisplatin, reference compound] | – | – | – | – | – | – | – | – | – | – | – | – | – | – | – | – | IC50 [1]: 24 µM; 3D sphere count of MDAMB231 in Mammosphere media ([2]; 250 uM): 24(±3) and 25(±2); IC50 [3]: 29.8 µM; IC50 [4]: 26.2 µM; IC50 [5]: 33.4 µM; 3D sphere count of PC3 in Prostosphere media ([6]; 250 uM): 29(±2) and 29(±5) and 25(±2) and 27(±2); IC50 [7]: 29.4 µM |
| 3.98 µM | 2.59 µM | 3.33 µM | 4.07 µM | COc1cccc(-c2ccc(OCCN3CCOCC3)c3ccccc23)c1 [Formula XII, 4-(2-(1-(3-methoxyphenyl)naphthalen-4-yloxy)ethyl)morpholine] | 47(±4) | 41(±3) | 34(±3) | 30(±3) | 9(±3) | 59% | 52% | 43% | 38% | 11% | 50(±3) | 42(±3) | 36(±3) | 28(±3) | 9(±3) | 61% | viability at 0.025 µM [6]: 51%; viability at 0.25 µM [6]: 44%; viability at 2.5 µM [6]: 34%; viability at 25 µM [6]: 11%; IC50 ([7]; Homo sapiens, MDA-MB-231, 48 h): 2.7 µM |
